The test system of series [1] is mice. In words: Mouse phenotypic seizure liability assay (modified Racine score). Type of series: in vivo. The note with it: 100 mg/kg i.p., male C57Bl/6 mice, 3 h. The protocol:
Brain plasma concentration ratio (Kp) was calculated by dividing brain concentration by plasma concentration for each animal. Unbound brain to unbound plasma concentration ratio (Kp,uu) is calculated using the following formula: Kp,uu = (Brain ng/g x brain fu)/(plasma ng/ml x plasma fu). […]
Behavioral Manifestations of Seizure Activity
To evaluate induction of behavioral manifestation of seizure activity, C57Bl/6 mice received administration of vehicle or 100 mg/kg M1 PAM. Compounds were formulated in 30% Captisol (11) or 10% Tween 80 (2-4 and 12) (pH 7.0) at a concentration of 10 mg/mL and injected i.p. (n = 3). Animals were monitored continuously and scored for behavioral manifestations of seizure activity at 5, 10, 15, and 30 min, and 1 and 3 h. Behavioral manifestations of seizures were scored using a modified Racine scoring system.2 Briefly, a score of 0 represents no behavior alterations; score 1, immobility, mouth and facial movements, or facial clonus; score 2, head nodding, tail extension; score 3, forelimb clonus, repetitive movements; score 4, rearing and tonic clonic seizure; and score 5, continuous rearing and falling, severe generalized tonic clonic seizure.

Series [2] is described as follows: Rat plasma and brain exposure, 100 mg/kg i.p., 3 h. Type of series: in vivo. The note with it: brain and plasma, ip, 100 mg/kg i.p. The source says:
Due to the prevalence of metabolite A (VU6036463, 24) in both in vitro preparations and in vivo, we first synthesized and characterized 24. Utilizing intermediate 19 (Scheme 3), a Suzuki coupling with benzyl chloride 28 afforded a mixture of N-Boc protected analog 29 and N-H analog 29a in moderate isolated yield. Hydrolysis of the nitriles to the carboxylic acid, followed by a HATU-mediated coupling with tetrahydro-2H-pyran-4-amine delivered 24 in 81% yield over the two steps.[21] In our kinetic assays, 24 was an “active” metabolite, with the profile of an M1 ago-PAM. […] To ascertain if 24 could be the source of the adverse cholinergic events in rats, we dosed 11 and 24, in parallel, at a dose of 100 mg/kg i.p. in 30% captisol and prepared plasma and brain samples at a 3-h time point to determine brain exposure of the M1 ago-PAM 24. In this study, 11 achieved a total plasma concentration of 3.6 μM and a total brain concentration of 0.93 μM (Kp = 0.26).

For series [3], the target named is T1, human M1 (Homo sapiens, UniProt P11229).
T1 sequence (P11229 1-460): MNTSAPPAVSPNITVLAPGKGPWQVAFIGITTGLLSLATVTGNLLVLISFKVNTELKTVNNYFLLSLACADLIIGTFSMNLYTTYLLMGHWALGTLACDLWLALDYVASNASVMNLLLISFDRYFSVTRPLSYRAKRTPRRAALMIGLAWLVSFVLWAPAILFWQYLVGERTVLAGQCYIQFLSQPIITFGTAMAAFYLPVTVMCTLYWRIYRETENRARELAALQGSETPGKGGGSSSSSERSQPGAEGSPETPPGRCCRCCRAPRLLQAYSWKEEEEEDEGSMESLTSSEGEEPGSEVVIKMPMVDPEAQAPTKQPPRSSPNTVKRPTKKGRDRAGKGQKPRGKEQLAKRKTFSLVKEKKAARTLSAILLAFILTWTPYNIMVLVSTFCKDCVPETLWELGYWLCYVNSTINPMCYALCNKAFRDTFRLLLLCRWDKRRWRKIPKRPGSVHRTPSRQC
In words: Calcium mobilization assay, human M1 (agonist and PAM modes). The format is cell-based. (A change in cytosolic calcium serves as a functional read-out for many receptors and channels.)

Read-outs that look alike come from different tables or passages of the source.

For `Cc1ccc(Cc2cc3c(=O)n([C@H]4CCCC[C@@H]4O)cnc3c3ccccc23)cn1` [compound 3, reference compound], the “seizure liability / behavioral convulsions (modified Racine score)” value in series [1] was “robust behavioral convulsions”.

With `Cn1ccc(-c2ccc(Cn3cc(C(=O)N[C@H]4CCOC[C@@H]4O)c4ncccc43)cc2)n1` [compound 4, reference compound], in series [1], the “seizure liability / behavioral convulsions (modified Racine score)” value is given as “robust behavioral convulsions”.

With `Cn1ccc(-c2ccc(Cc3cc(C(=O)N[C@H]4CCOC[C@@H]4O)nc4ccn(C)c34)cc2)n1` [compound 30], the Kp – broadly, the ratio of the level in a tissue or fluid to that in plasma or blood – at 3 h in series [2] is 0.38. The “hM1 PAM AChmax (%)” value in series [3] (PAM mode, % ACh max) was 71%. Moreover, the EC50 (as a rule, the concentration needed to bring the measured effect to its halfway point) came out at 4.9 nM in series [3] (PAM mode, read-out: hM1 PAM EC50) and 176 nM in series [3] (agonist mode, read-out: hM1 Agonist EC50). Further, the “hM1 Agonist AChmax (%)” value in series [3] (agonist mode, % ACh max) is recorded as 60%.

Source of the values: PMC11413853, “Discovery of VU6007496: Challenges in the Development of an M1 Positive Allosteric Modulator Backup Candidate” (ACS Chemical Neuroscience, 2024).
